Measured values taken from patent US7491495B2, “Adsorption of nucleic acids to a solid phase” (Roche Diagnostics Operations, Inc., priority 2004, dated 2009).
Where two headings read alike, the source gives them in different places.

Target: proteinase K (Parengyodontium album, UniProt P06873)
Conditions: relative to 0 min control buffer without chaotropic agent (0.5 U/ml = 100%); for Activity of proteinase K at t = 0 min: 0 min value; for Activity of proteinase K at t = 15 min: 15 min value
Description: 10 μl of a 20 mg/ml stock solution of proteinase K (Roche Diagnostics GmbH, Mannheimm, catalogue no. 745723; 90 mg dissolved in 4.5 ml water) was mixed with a chaotropic buffer containing 50 mM Tris-HCl pH 6.0, 1% DTT, 20% TRITON X-100 and x M Guanidinum thiocyanate; x=0, 1, 2, 3, 4, 5, 6). Directly after mixing the proteinase K activity was measured in a first aliquot (10 μl) of the mixture using the assay described below (0 min activity value). 15 min after mixing the proteinase K activity was measured in a second aliquot (10 μl) of the mixture using the assay described below (15 min activity value).
10 μl of the proteinase K in chaotropic buffer (see above, (A)) were mixed with assay buffer, that is to say 980 μl 0.2 M Triethanolamin, 0.05% (weight by volume) PEG 6000, 0.1 M Calcium chloride, and 10 μl of a 200 mM substate solution. The substrate was Suc-Ala-Ala-Ala-p-Nitroanilid. The assay buffer was provided in a cuvette. Immediately after mixing the cuvette was placed in a Photometer. Measurements (absorption) were taken over 15 min at 25° C. The activity of proteinase K in the assay buffer was calculated from the kinetics as indicated by a change in absorption at 405 nm.
Table 1 lists the 0 min values of the activity of proteinase K in the presence of guanidinium thiocyanate at the different concentrations given in (A). Table 2 lists the 15 min values of the activity of proteinase K in the presence of guanidinium thiocyanate at the different concentrations given in (A) as well as the control value (no chaotropic agent present). The values are expressed in relation to the 0 min activity value of proteinase K in the control buffer without chaotropic agent (see (A)), corresponding to 0.5 U/ml; this value was set as 100%. The data of Table 1 and Table 2 are graphically represented in FIG. 1 and FIG. 2.

Chain of proteinase K (P06873 106-384): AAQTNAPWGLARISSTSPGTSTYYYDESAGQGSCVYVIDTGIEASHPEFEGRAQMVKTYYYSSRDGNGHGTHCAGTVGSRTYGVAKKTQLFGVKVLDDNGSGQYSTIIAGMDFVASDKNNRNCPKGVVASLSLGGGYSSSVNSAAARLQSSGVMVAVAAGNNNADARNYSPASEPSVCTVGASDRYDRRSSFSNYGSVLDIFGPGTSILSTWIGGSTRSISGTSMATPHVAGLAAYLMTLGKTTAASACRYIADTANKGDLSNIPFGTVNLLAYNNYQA

In the case of `N#CS.N=C(N)N` [guanidinium thiocyanate], the “Activity of proteinase K at t = 0 min” value (1 M guanidinium thiocyanate) is reported as 94%, the “Activity of proteinase K at t = 15 min” value (1 M guanidinium thiocyanate) is reported as 95% and the “Activity of proteinase K at t = 0 min” value (2 M guanidinium thiocyanate) is reported as 100%. For the same molecule, the “Activity of proteinase K at t = 15 min” value (2 M guanidinium thiocyanate) was 95%, the “Activity of proteinase K at t = 0 min” value (3 M guanidinium thiocyanate) was 66% and the “Activity of proteinase K at t = 15 min” value (3 M guanidinium thiocyanate) was 1%. For the same molecule, the “Activity of proteinase K at t = 0 min” value (4 M guanidinium thiocyanate) was 1%, the “Activity of proteinase K at t = 15 min” value (4 M guanidinium thiocyanate) was 0% and the “Activity of proteinase K at t = 0 min” value (5 M guanidinium thiocyanate) was 0%. The “Activity of proteinase K at t = 15 min” value (5 M guanidinium thiocyanate) was 0%, the “Activity of proteinase K at t = 0 min” value (6 M guanidinium thiocyanate) was 0% and the “Activity of proteinase K at t = 15 min” value (6 M guanidinium thiocyanate) was 0%.
